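Method: 48-hour compound exposure of cells in 96-well plates, five concentrations, linear interpolation of endpoints. At the GI50, growth is halved.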 Calls of active or inactive are those of the source. No stated cut-off is given here; in the data, active = GI50 up to about 1.1 µM and inactive = higher.
Experiments:
Experiment in all cases: inhibition of tumour cell growth, NCI panel, 48 h
A549 = test system: A549
CAKI-1 = test system: CAKI-1
CCRF-CEM = test system: CCRF-CEM
COLO 205 = test system: COLO 205
DU-145 = test system: DU-145
EKVX = test system: EKVX
HOP-92 = test system: HOP-92
HT-29 = test system: HT-29
LOX IMVI = test system: LOX IMVI
MCF7 = test system: MCF7
MOLT-4 = test system: MOLT-4
NCI-H522 = test system: NCI-H522
OVCAR-4 = test system: OVCAR-4
PC-3 = test system: PC-3
RPMI-8226 = test system: RPMI-8226
SK-MEL-28 = test system: SK-MEL-28
SK-MEL-2 = test system: SK-MEL-2
U-251 = test system: U-251
UACC-257 = test system: UACC-257
UO-31 = test system: UO-31

COc1c(C(=O)O)cccc1-c1cccc(C(=O)NCCN(CCNC(=O)c2cccc(-c3cccc(C(=O)O)c3OC)c2OC)CCNC(=O)c2cccc(-c3cccc(C(=O)O)c3OC)c2OC)c1OC
GI50 (A549): 49.5 µM (inactive)
GI50 (CAKI-1): 51.6 µM (inactive)
GI50 (CCRF-CEM): 35.2 µM (inactive)
GI50 (COLO 205): 20.2 µM (inactive)
GI50 (DU-145): 39 µM (inactive)
GI50 (EKVX): 64.6 µM (inactive)
GI50 (HOP-92): 67.1 µM (inactive)
GI50 (HT-29): 20.7 µM (inactive)
GI50 (LOX IMVI): 32.3 µM (inactive)
GI50 (MCF7): 37.8 µM (inactive)
GI50 (MOLT-4): 36.7 µM (inactive)
GI50 (NCI-H522): 33.3 µM (inactive)
GI50 (OVCAR-4): 60.5 µM (inactive)
GI50 (PC-3): 27.9 µM (inactive)
GI50 (RPMI-8226): 23.2 µM (inactive)
GI50 (SK-MEL-28): 52.5 µM (inactive)
GI50 (SK-MEL-2): 31.8 µM (inactive)
GI50 (U-251): 28.5 µM (inactive)
GI50 (UACC-257): 62.7 µM (inactive)
GI50 (UO-31): > 100 µM (inactive)

Cc1c2oc3c(C)cc(F)c(C(=O)NC4C(=O)NC(C(C)C)C(=O)N5CCCC5C(=O)N(C)CC(=O)N(C)C(C(C)C)C(=O)OC4C)c3nc-2c(C(=O)NC2C(=O)NC(C(C)C)C(=O)N3CCCC3C(=O)N(C)CC(=O)N(C)C(C(C)C)C(=O)OC2C)c(N)c1=O (stereo not given)
GI50 (A549): 0.0148 µM (active)
GI50 (CAKI-1): 2.45 µM (inactive)
GI50 (CCRF-CEM): < 0.001 µM (active)
GI50 (COLO 205): 0.0267 µM (active)
GI50 (DU-145): 0.115 µM (active)
GI50 (EKVX): 1.75 µM (inactive)
GI50 (HOP-92): 0.154 µM (active)
GI50 (HT-29): 0.00586 µM (active)
GI50 (LOX IMVI): 0.00255 µM (active)
GI50 (MCF7): < 0.001 µM (active)
GI50 (MOLT-4): < 0.001 µM (active)
GI50 (NCI-H522): 0.00188 µM (active)
GI50 (OVCAR-4): 0.711 µM (active)
GI50 (PC-3): 0.0179 µM (active)
GI50 (RPMI-8226): < 0.001 µM (active)
GI50 (SK-MEL-28): 0.0263 µM (active)
GI50 (SK-MEL-2): 0.01 µM (active)
GI50 (U-251): 0.00588 µM (active)
GI50 (UACC-257): 0.00395 µM (active)
GI50 (UO-31): 0.521 µM (active)

COc1ccc2c(c1)CC[C@@H]1[C@@H]2CC[C@]2(C)C(=O)/C(=C/c3ccncc3)C[C@@H]12
GI50 (A549): 30.8 µM (inactive)
GI50 (CAKI-1): 46.5 µM (inactive)
GI50 (CCRF-CEM): > 100 µM (inactive)
GI50 (COLO 205): 25.3 µM (inactive)
GI50 (DU-145): 38.8 µM (inactive)
GI50 (EKVX): 53.6 µM (inactive)
GI50 (HOP-92): 27.9 µM (inactive)
GI50 (HT-29): 33.1 µM (inactive)
GI50 (LOX IMVI): 37.8 µM (inactive)
GI50 (MCF7): 61.4 µM (inactive)
GI50 (MOLT-4): > 100 µM (inactive)
GI50 (NCI-H522): 30.4 µM (inactive)
GI50 (OVCAR-4): 48.2 µM (inactive)
GI50 (PC-3): 29.3 µM (inactive)
GI50 (RPMI-8226): 93.8 µM (inactive)
GI50 (SK-MEL-28): 33.6 µM (inactive)
GI50 (SK-MEL-2): 22.5 µM (inactive)
GI50 (U-251): 54.3 µM (inactive)
GI50 (UACC-257): 29.3 µM (inactive)
GI50 (UO-31): 37.2 µM (inactive)

NC(=O)c1ncn(C2OC(CO)C(O)C2O)c1NC=O (stereo not given)
GI50 (A549): > 100 µM (inactive)
GI50 (CAKI-1): > 100 µM (inactive)
GI50 (CCRF-CEM): > 100 µM (inactive)
GI50 (COLO 205): > 100 µM (inactive)
GI50 (DU-145): > 100 µM (inactive)
GI50 (EKVX): > 100 µM (inactive)
GI50 (HOP-92): > 100 µM (inactive)
GI50 (HT-29): > 100 µM (inactive)
GI50 (LOX IMVI): > 100 µM (inactive)
GI50 (MCF7): > 100 µM (inactive)
GI50 (MOLT-4): > 100 µM (inactive)
GI50 (NCI-H522): > 100 µM (inactive)
GI50 (OVCAR-4): > 100 µM (inactive)
GI50 (PC-3): > 100 µM (inactive)
GI50 (RPMI-8226): > 100 µM (inactive)
GI50 (SK-MEL-28): > 100 µM (inactive)
GI50 (SK-MEL-2): > 100 µM (inactive)
GI50 (U-251): > 100 µM (inactive)
GI50 (UACC-257): > 100 µM (inactive)
GI50 (UO-31): > 100 µM (inactive)

O=[N+]([O-])c1ccc(C(Nc2ccccc2)c2ccc3cccnc3c2O)cc1 (stereo not given)
GI50 (A549): 8.04 µM (inactive)
GI50 (CAKI-1): 6.25 µM (inactive)
GI50 (CCRF-CEM): 2.17 µM (inactive)
GI50 (COLO 205): 12.2 µM (inactive)
GI50 (DU-145): 9.14 µM (inactive)
GI50 (EKVX): 6.04 µM (inactive)
GI50 (HOP-92): 7.87 µM (inactive)
GI50 (HT-29): 7.08 µM (inactive)
GI50 (LOX IMVI): 6.5 µM (inactive)
GI50 (MCF7): 4.83 µM (inactive)
GI50 (MOLT-4): 0.423 µM (active)
GI50 (NCI-H522): 4.24 µM (inactive)
GI50 (OVCAR-4): 5.69 µM (inactive)
GI50 (PC-3): 10.8 µM (inactive)
GI50 (RPMI-8226): 5.13 µM (inactive)
GI50 (SK-MEL-28): 40.6 µM (inactive)
GI50 (SK-MEL-2): 24.3 µM (inactive)
GI50 (U-251): 3.55 µM (inactive)
GI50 (UACC-257): 13.8 µM (inactive)
GI50 (UO-31): 6.78 µM (inactive)

C[N+](C)(C)C(Cc1c[nH]c(=S)[nH]1)C(=O)O (stereo not given)
GI50 (A549): > 100 µM (inactive)
GI50 (CAKI-1): > 100 µM (inactive)
GI50 (CCRF-CEM): > 100 µM (inactive)
GI50 (COLO 205): > 100 µM (inactive)
GI50 (DU-145): > 100 µM (inactive)
GI50 (EKVX): > 100 µM (inactive)
GI50 (HOP-92): > 100 µM (inactive)
GI50 (HT-29): > 100 µM (inactive)
GI50 (LOX IMVI): > 100 µM (inactive)
GI50 (MCF7): > 100 µM (inactive)
GI50 (MOLT-4): > 100 µM (inactive)
GI50 (NCI-H522): > 100 µM (inactive)
GI50 (OVCAR-4): > 100 µM (inactive)
GI50 (PC-3): > 100 µM (inactive)
GI50 (RPMI-8226): > 100 µM (inactive)
GI50 (SK-MEL-28): > 100 µM (inactive)
GI50 (SK-MEL-2): > 100 µM (inactive)
GI50 (U-251): > 100 µM (inactive)
GI50 (UACC-257): > 100 µM (inactive)
GI50 (UO-31): > 100 µM (inactive)
